# Measured values reported in PMC10175095 (Therapeutic drug monitoring, 2023).
# Key:
# [1] = Long-term stability of unprocessed plasma samples at −80°C; format: in vitro ADME; conditions: human plasma
# [2] = Reinjection stability in final extract; format: physicochemical; conditions: reinjected, 4°C, autosampler, 25.95 h
# [3] = Freeze-thaw stability of unprocessed plasma samples; format: in vitro ADME; conditions: human plasma, 3 freeze (-80°C)-thaw cycles
# [4] = Processed sample stability in final extract; format: physicochemical; conditions: 4°C, autosampler, 25.1 h
# [5] = requires confirmation in prospective studies; cited from earlier work
# [6] = Pre-processed stability in human plasma; format: in vitro ADME; conditions: 2.5 h
# [7] = RT (20–25°C), yellow light, nominal 15 ng/mL
# [8] = RT (20–25°C), yellow light, nominal 1500 ng/mL
compound,measurement,setting,value
"CCN1CCN(Cc2ccc(Nc3ncc(F)c(-c4cc(F)c5nc(C)n(C(C)C)c5c4)n3)nc2)CC1 [Abemaciclib, abemaciclib]",Accuracy vs fresh QCs,"[1]; 3 months, nominal 15 ng/mL",98.6%
same,Mean measured concentration,"[1]; 3 months, nominal 15 ng/mL",14.7 ng/mL
same,Accuracy vs fresh QCs,"[1]; 3 months, nominal 150 ng/mL",95.5%
same,Mean measured concentration,"[1]; 3 months, nominal 150 ng/mL",149 ng/mL
same,Accuracy vs fresh QCs,"[1]; 3 months, nominal 1500 ng/mL",95.6%
same,Mean measured concentration,"[1]; 3 months, nominal 1500 ng/mL",1437 ng/mL
same,Mean measured concentration,"[1]; 7 months, nominal 15 ng/mL",14.1 ng/mL
same,Accuracy vs fresh QCs,"[1]; 7 months, nominal 150 ng/mL",98.9%
same,Mean measured concentration,"[1]; 7 months, nominal 150 ng/mL",156 ng/mL
same,Accuracy vs fresh QCs,"[1]; 7 months, nominal 1500 ng/mL",97.5%
same,Mean measured concentration,"[1]; 7 months, nominal 1500 ng/mL",1443 ng/mL
same,Mean measured concentration,"[1]; 12 months, nominal 15 ng/mL",15.2 ng/mL
same,Accuracy vs fresh QCs,"[1]; 12 months, nominal 150 ng/mL",99.0%
same,Mean measured concentration,"[1]; 12 months, nominal 150 ng/mL",164 ng/mL
same,Accuracy vs fresh QCs,"[1]; 12 months, nominal 1500 ng/mL",96.6%
same,Mean measured concentration,"[1]; 12 months, nominal 1500 ng/mL",1583 ng/mL
same,Accuracy vs fresh QCs,[2]; nominal 15 ng/mL,98.2%
same,Mean measured concentration,[2]; nominal 15 ng/mL,16.4 ng/mL
same,Accuracy vs fresh QCs,[2]; nominal 150 ng/mL,98.7%
same,Mean measured concentration,[2]; nominal 150 ng/mL,155 ng/mL
same,Accuracy vs fresh QCs,[2]; nominal 1500 ng/mL,103%
same,Mean measured concentration,[2]; nominal 1500 ng/mL,1527 ng/mL
same,Mean measured concentration,[3]; nominal 15 ng/mL,15.1 ng/mL
same,Accuracy vs fresh QCs,[3]; nominal 1500 ng/mL,98.8%
same,Accuracy vs. nominal concentration,[3]; nominal 1500 ng/mL,98.7%
same,Mean measured concentration,[3]; nominal 1500 ng/mL,1480 ng/mL
same,Accuracy vs fresh QCs,[4]; nominal 15 ng/mL,95.6%
same,Mean measured concentration,[4]; nominal 15 ng/mL,15.9 ng/mL
same,Accuracy vs fresh QCs,[4]; nominal 1500 ng/mL,102%
same,Mean measured concentration,[4]; nominal 1500 ng/mL,1510 ng/mL
same,Proposed target Cmin for TDM,[5],200 to 210 ng/mL
same,Accuracy vs fresh QCs,"[6]; 37°C, dark, nominal 15 ng/mL",97.5%
same,Mean measured concentration,"[6]; 37°C, dark, nominal 15 ng/mL",15.4 ng/mL
same,Mean measured concentration,"[6]; 37°C, dark, nominal 1500 ng/mL",1527 ng/mL
same,Accuracy vs fresh QCs,[6]; [7],99.4%
same,Mean measured concentration,[6]; [7],15.7 ng/mL
same,Mean measured concentration,[6]; [8],1550 ng/mL
"CC(=O)c1c(C)c2cnc(Nc3ccc(N4CCNCC4)cn3)nc2n(C2CCCC2)c1=O [Palbociclib, palbociclib]",Accuracy vs fresh QCs,"[1]; 3 months, nominal 15 ng/mL",94.0%
same,Accuracy vs. nominal concentration,"[1]; 3 months, nominal 15 ng/mL",99.8%
same,Mean measured concentration,"[1]; 3 months, nominal 15 ng/mL",15.0 ng/mL
same,Accuracy vs fresh QCs,"[1]; 3 months, nominal 150 ng/mL",92.8%
same,Accuracy vs. nominal concentration,"[1]; 3 months, nominal 150 ng/mL",102%
same,Mean measured concentration,"[1]; 3 months, nominal 150 ng/mL",153 ng/mL
same,Accuracy vs fresh QCs,"[1]; 3 months, nominal 1500 ng/mL",92.8%
same,Accuracy vs. nominal concentration,"[1]; 3 months, nominal 1500 ng/mL",96.0%
same,Mean measured concentration,"[1]; 3 months, nominal 1500 ng/mL",1440 ng/mL
same,Accuracy vs fresh QCs,"[1]; 7 months, nominal 15 ng/mL",92.1%
same,Accuracy vs. nominal concentration,"[1]; 7 months, nominal 15 ng/mL",101.3%
same,Mean measured concentration,"[1]; 7 months, nominal 15 ng/mL",15.2 ng/mL
same,Accuracy vs fresh QCs,"[1]; 7 months, nominal 150 ng/mL",85.7%
same,Accuracy vs. nominal concentration,"[1]; 7 months, nominal 150 ng/mL",109%
same,Mean measured concentration,"[1]; 7 months, nominal 150 ng/mL",163 ng/mL
same,Accuracy vs fresh QCs,"[1]; 7 months, nominal 1500 ng/mL",91.6%
same,Accuracy vs. nominal concentration,"[1]; 7 months, nominal 1500 ng/mL",92.2%
same,Mean measured concentration,"[1]; 7 months, nominal 1500 ng/mL",1383 ng/mL
same,Accuracy vs fresh QCs,"[1]; 12 months, nominal 15 ng/mL",96.4%
same,Accuracy vs. nominal concentration,"[1]; 12 months, nominal 15 ng/mL",104%
same,Mean measured concentration,"[1]; 12 months, nominal 15 ng/mL",15.6 ng/mL
same,Accuracy vs fresh QCs,"[1]; 12 months, nominal 150 ng/mL",95.3%
same,Accuracy vs. nominal concentration,"[1]; 12 months, nominal 150 ng/mL",105%
same,Mean measured concentration,"[1]; 12 months, nominal 150 ng/mL",157 ng/mL
same,Accuracy vs fresh QCs,"[1]; 12 months, nominal 1500 ng/mL",87.0%
same,Accuracy vs. nominal concentration,"[1]; 12 months, nominal 1500 ng/mL",108%
same,Mean measured concentration,"[1]; 12 months, nominal 1500 ng/mL",1613 ng/mL
same,Accuracy vs fresh QCs,[2]; nominal 15 ng/mL,100%
same,Accuracy vs. nominal concentration,[2]; nominal 15 ng/mL,112%
same,Mean measured concentration,[2]; nominal 15 ng/mL,16.7 ng/mL
same,Accuracy vs fresh QCs,[2]; nominal 150 ng/mL,99.0%
same,Accuracy vs. nominal concentration,[2]; nominal 150 ng/mL,106%
same,Mean measured concentration,[2]; nominal 150 ng/mL,160 ng/mL
same,Accuracy vs fresh QCs,[2]; nominal 1500 ng/mL,100%
same,Mean measured concentration,[2]; nominal 1500 ng/mL,1473 ng/mL
same,Accuracy vs fresh QCs,[3]; nominal 15 ng/mL,98.1%
same,Accuracy vs. nominal concentration,[3]; nominal 15 ng/mL,99.8%
same,Mean measured concentration,[3]; nominal 15 ng/mL,15.0 ng/mL
same,Accuracy vs fresh QCs,[3]; nominal 1500 ng/mL,98.7%
same,Accuracy vs. nominal concentration,[3]; nominal 1500 ng/mL,96.9%
same,Mean measured concentration,[3]; nominal 1500 ng/mL,1453 ng/mL
same,Accuracy vs fresh QCs,[4]; nominal 15 ng/mL,99.0%
same,Accuracy vs. nominal concentration,[4]; nominal 15 ng/mL,110%
same,Mean measured concentration,[4]; nominal 15 ng/mL,16.5 ng/mL
same,Accuracy vs fresh QCs,[4]; nominal 1500 ng/mL,100%
same,Accuracy vs. nominal concentration,[4]; nominal 1500 ng/mL,98.7%
same,Mean measured concentration,[4]; nominal 1500 ng/mL,1480 ng/mL
same,Accuracy vs fresh QCs,"[6]; 37°C, dark, nominal 15 ng/mL",94.8%
same,Accuracy vs. nominal concentration,"[6]; 37°C, dark, nominal 15 ng/mL",103%
same,Mean measured concentration,"[6]; 37°C, dark, nominal 15 ng/mL",15.4 ng/mL
same,Accuracy vs fresh QCs,"[6]; 37°C, dark, nominal 1500 ng/mL",102%
same,Accuracy vs. nominal concentration,"[6]; 37°C, dark, nominal 1500 ng/mL",99.3%
same,Mean measured concentration,"[6]; 37°C, dark, nominal 1500 ng/mL",1490 ng/mL
same,Accuracy vs fresh QCs,[6]; [7],95.6%
same,Accuracy vs. nominal concentration,[6]; [7],104%
same,Mean measured concentration,[6]; [7],15.5 ng/mL
same,Accuracy vs fresh QCs,[6]; [8],102%
same,Accuracy vs. nominal concentration,[6]; [8],99.6%
same,Mean measured concentration,[6]; [8],1493 ng/mL
"CN(C)C(=O)c1cc2cnc(Nc3ccc(N4CCNCC4)cn3)nc2n1C1CCCC1 [Ribociclib, ribociclib]",Accuracy vs fresh QCs,"[1]; 3 months, nominal 15 ng/mL",106%
same,Accuracy vs. nominal concentration,"[1]; 3 months, nominal 15 ng/mL",102%
same,Mean measured concentration,"[1]; 3 months, nominal 15 ng/mL",15.3 ng/mL
same,Accuracy vs fresh QCs,"[1]; 3 months, nominal 150 ng/mL",105%
same,Accuracy vs. nominal concentration,"[1]; 3 months, nominal 150 ng/mL",98.7%
same,Mean measured concentration,"[1]; 3 months, nominal 150 ng/mL",148 ng/mL
same,Accuracy vs fresh QCs,"[1]; 3 months, nominal 1500 ng/mL",104%
same,Accuracy vs. nominal concentration,"[1]; 3 months, nominal 1500 ng/mL",94.2%
same,Mean measured concentration,"[1]; 3 months, nominal 1500 ng/mL",1413 ng/mL
same,Accuracy vs fresh QCs,"[1]; 7 months, nominal 15 ng/mL",90.3%
same,Accuracy vs. nominal concentration,"[1]; 7 months, nominal 15 ng/mL",98.4%
same,Mean measured concentration,"[1]; 7 months, nominal 15 ng/mL",14.8 ng/mL
same,Accuracy vs fresh QCs,"[1]; 7 months, nominal 150 ng/mL",86.0%
same,Accuracy vs. nominal concentration,"[1]; 7 months, nominal 150 ng/mL",106%
same,Mean measured concentration,"[1]; 7 months, nominal 150 ng/mL",160 ng/mL
same,Accuracy vs fresh QCs,"[1]; 7 months, nominal 1500 ng/mL",88.8%
same,Accuracy vs. nominal concentration,"[1]; 7 months, nominal 1500 ng/mL",93.6%
same,Mean measured concentration,"[1]; 7 months, nominal 1500 ng/mL",1403 ng/mL
same,Accuracy vs fresh QCs,"[1]; 12 months, nominal 15 ng/mL",107%
same,Accuracy vs. nominal concentration,"[1]; 12 months, nominal 15 ng/mL",105%
same,Mean measured concentration,"[1]; 12 months, nominal 15 ng/mL",15.7 ng/mL
same,Accuracy vs fresh QCs,"[1]; 12 months, nominal 150 ng/mL",105%
same,Accuracy vs. nominal concentration,"[1]; 12 months, nominal 150 ng/mL",108%
same,Mean measured concentration,"[1]; 12 months, nominal 150 ng/mL",161 ng/mL
same,Accuracy vs fresh QCs,"[1]; 12 months, nominal 1500 ng/mL",101%
same,Accuracy vs. nominal concentration,"[1]; 12 months, nominal 1500 ng/mL",108%
same,Mean measured concentration,"[1]; 12 months, nominal 1500 ng/mL",1613 ng/mL
same,Accuracy vs fresh QCs,[2]; nominal 15 ng/mL,97.8%
same,Accuracy vs. nominal concentration,[2]; nominal 15 ng/mL,110%
same,Mean measured concentration,[2]; nominal 15 ng/mL,16.5 ng/mL
same,Accuracy vs fresh QCs,[2]; nominal 150 ng/mL,101%
same,Accuracy vs. nominal concentration,[2]; nominal 150 ng/mL,107%
same,Mean measured concentration,[2]; nominal 150 ng/mL,161 ng/mL
same,Accuracy vs fresh QCs,[2]; nominal 1500 ng/mL,101%
same,Accuracy vs. nominal concentration,[2]; nominal 1500 ng/mL,100%
same,Mean measured concentration,[2]; nominal 1500 ng/mL,1503 ng/mL
same,Accuracy vs fresh QCs,[3]; nominal 15 ng/mL,98.3%
same,Accuracy vs. nominal concentration,[3]; nominal 15 ng/mL,100%
same,Mean measured concentration,[3]; nominal 15 ng/mL,15.0 ng/mL
same,Accuracy vs fresh QCs,[3]; nominal 1500 ng/mL,97.1%
same,Accuracy vs. nominal concentration,[3]; nominal 1500 ng/mL,97.1%
same,Mean measured concentration,[3]; nominal 1500 ng/mL,1457 ng/mL
same,Accuracy vs fresh QCs,[4]; nominal 15 ng/mL,99.2%
same,Accuracy vs. nominal concentration,[4]; nominal 15 ng/mL,112%
same,Mean measured concentration,[4]; nominal 15 ng/mL,16.7 ng/mL
same,Accuracy vs fresh QCs,[4]; nominal 1500 ng/mL,99.8%
same,Accuracy vs. nominal concentration,[4]; nominal 1500 ng/mL,98.7%
same,Mean measured concentration,[4]; nominal 1500 ng/mL,1480 ng/mL
same,Proposed target Cmin for TDM,[5],711 ng/mL
same,Accuracy vs fresh QCs,"[6]; 37°C, dark, nominal 15 ng/mL",97.8%
same,Accuracy vs. nominal concentration,"[6]; 37°C, dark, nominal 15 ng/mL",106%
same,Mean measured concentration,"[6]; 37°C, dark, nominal 15 ng/mL",15.9 ng/mL
same,Accuracy vs fresh QCs,"[6]; 37°C, dark, nominal 1500 ng/mL",102%
same,Accuracy vs. nominal concentration,"[6]; 37°C, dark, nominal 1500 ng/mL",100%
same,Mean measured concentration,"[6]; 37°C, dark, nominal 1500 ng/mL",1500 ng/mL
same,Accuracy vs fresh QCs,[6]; [7],98.0%
same,Accuracy vs. nominal concentration,[6]; [7],106%
same,Mean measured concentration,[6]; [7],15.9 ng/mL
same,Accuracy vs fresh QCs,[6]; [8],102%
same,Accuracy vs. nominal concentration,[6]; [8],100%
same,Mean measured concentration,[6]; [8],1503 ng/mL
